Values quoted from earlier work in paper PMC5036784 (Biophysics, 2011).
Read-outs that look alike come from different tables or passages of the source.

Conditions: for rate constant of membrane binding kFB / rate constant of membrane dissociation kBF: 19F NMR; for time span of the binding and dissociation: timescale

SMILES	rate constant of membrane binding kFB (ref [3]) [s⁻¹]	rate constant of membrane dissociation kBF (ref [3]) [s⁻¹]	time span of the binding and dissociation (ref [3])	rate constant of membrane binding kFB (303K, ref [4]) [s⁻¹]	rate constant of membrane dissociation kBF (303K, ref [4]) [s⁻¹]	binding free energy ΔG (ref [4]) [kcal/mol]	time span of the binding and dissociation (ref [4])
O=c1[nH]cc(F)c(=O)[nH]1 [5FU, 5-fluoro-1H-pyrimidine-2,4-dione]	0.2	4.1	10^−1–10^0 s				
Oc1ccc(C(c2ccc(O)cc2)(C(F)(F)F)C(F)(F)F)cc1 [FBPA, fluorinated bisphenol A]				22 to 280	68 to 107	-4.78	10^−3–10^−2 s
